Assays:
Type in all cases: cell-based
S. aureus (ATCC #25983) [1] = assay: Zone-of-inhibition after ethylene oxide or E-beam sterilization of coated SIS discs (Example 4)
Protocol: BisEDT was obtained from Microbion, Inc. as previously described. Small intestinal submucosa (SIS) was obtained and processed into 4-layer lyophilized sheets as described in Example 1. The sheets were subsequently cut into 15 mm discs (˜1.76 cm^2) using a disc punch. BisEDT was resuspended in dimethyl sulfoxide (DMSO) and diluted to appropriate concentrations for coating. Discs were coated with the BisEDT solution at a final concentration of 0.35 μg/μl using 50 μl of the solution per disc for a final concentration of 10 μg/cm^2. The discs were subsequently placed in a lyophilizer overnight to remove the DMSO solvent. For the ethylene oxide sterilization compatibility experiment, 6 discs were coated with 10 μg/cm^2 BisEDT and packaged into 2 separate tyvek pouches with 3 discs per pouch. One pouch was placed in a drawer until use and left non-sterile and the other pouch was sterilized with low temperature ethylene oxide sterilization. For the E-beam sterilization, essentially the same process was performed except the discs were packaged in foil pouches and the samples were subjected to E-beam sterilization with a dose of ˜25 kGy. S. aureus (ATCC #25983) was used as the bacteria for this experiment. Bacteria was grown in Tryptic Soy Broth for 16-24 hours before placing a lawn on Tryptic Soy Agar in 100 mm Petri dishes. […]

E. coli (ATCC #25922) = assay: Zone-of-inhibition measured by image analysis, coated SIS discs (Example 2); details: 10 μg/cm^2 on SIS disc, 24 hours, n=3
Protocol: (§1) BisEDT (Molar ratio 1:1.5), BisBAL (1:1.5), and BisERY (1:1.5) (50 mg each) were obtained from Microbion, Inc. Small intestinal submucosa (SIS) was obtained and processed into 4-layer lyophilized sheets as described in Example 1. The sheets were subsequently cut into 15 mm discs (˜1.76 cm^2) using a disc punch. Bismuth thiols were resuspended in dimethyl sulfoxide (DMSO) and diluted to 0.35 μg/μl for coating. Discs were coated with the bismuth thiol solutions 50 μl of the appropriate solution per disc for a final concentration 10 μg/cm^2 (0.35 μg/μl*50 μl=17.5 μg/1.76 cm^2=10 μg/cm^2). The discs were subsequently placed in a lyophilizer overnight to remove the DMSO solvent. Control discs were prepared using 50 μl of DMSO without a bismuth thiol preparation. 3 bacteria were used for this experiment: S. aureus (ATCC #25983), P. aeruginosa (ATCC #27853), and E. coli (ATCC #25922). Bacteria was grown in Tryptic Soy Broth for 16-24 hours before placing a lawn on Tryptic Soy Agar in 100 mm Petri dishes.
(§2) Thirty samples were tested in total (3 bismuth thiol preparations @ n=3→9+1 control=10×3 bacteria=30). A lawn of one of the three bacteria investigated was swabbed onto the Tryptic Soy Agar. The bismuth thiol coated disc was rehydrated for ˜5 minutes in sterile saline and placed approximately in the center of the plate. Plates were incubated inverted for 24 hours at which time pictures were taken with a digital camera. Zones-of-inhibition were measured using image analysis software (Spot RT) by determining the distance of bacterial growth inhibition from the disc edge.

S. aureus (ATCC #25983) [2] = assay: as above; details: 10 μg/cm^2 on SIS disc, 24 hours, n=3
Protocol: as §1, §2

[3] = test system: C. albicans (ATCC #10231); assay: Anti-fungal zone-of-inhibition / growth inhibition, coated SIS discs (Example 5); details: 100 μg/cm^2 on SIS disc, ~48 hours
Protocol: (§3) BisEDT was obtained from Microbion, Inc. as previously described. Small intestinal submucosa (SIS) was obtained and processed into 4-layer lyophilized sheets as described in Example 1. The sheets were subsequently cut into 15 mm discs (˜1.76 cm^2) using a disc punch. BisEDT was resuspended in dimethyl sulfoxide (DMSO) and diluted to appropriate concentrations for coating. Discs were coated with the BisEDT solution at a final concentration of 3.5 μg/μl using 50 μl of the solution per disc for a final concentration of 100 μg/cm^2. The discs were subsequently placed in a lyophilizer overnight to remove the DMSO solvent. A total of 6 coated discs were made—3 each for the two microorganisms investigated. These were compared against 3 uncoated controls discs cut from the same lot of SIS for each microorganism. C. albicans (ATCC #10231) and A. niger(ATCC #16404) were plated on Rose Bengal Chloramphenicol (RBC) in Petri dishes.
(§4) The experiment consisted of a total of […] (3 BisEDT 100 μg/cm^2 coated, 3 uncoated controls) for each fungus. A lawn of either C. albicans or A. niger was swabbed onto the RBC plates. Each disc was rehydrated in sterile saline for ˜5 minutes then placed approximately in the center of the plate. Plates were incubated inverted for ˜48 hours for C. albicans or 5 and 8 days for A. niger at which time pictures were taken with a digital camera. Zones-of-inhibition or growth inhibition was compared visually between groups.

A. niger(ATCC #16404) = assay: as above; details: 100 μg/cm^2 on SIS disc
Protocol: as §3, §4

S. aureus (ATCC #25983) [4] = assay: Zone-of-inhibition after various rehydration times of coated SIS discs (Example 3)
Protocol: BisEDT (Molar ratio 1:1.5) and BisBAL (1:1.5) (50 mg each) were obtained from Microbion, Inc. Small intestinal submucosa (SIS) was obtained and processed into 4-layer lyophilized sheets as described in Example 1. The sheets were subsequently cut into 15 mm discs (˜1.76 cm^2) using a disc punch. Bismuth thiols were resuspended in dimethyl sulfoxide (DMSO) and diluted to appropriate concentrations for coating. Discs were coated with the bismuth thiol solutions at a final concentration of 0.35 μg/μl using 50 μl of the solution per disc for a final concentration of 10 μg/cm^2. The discs were subsequently placed in a lyophilizer overnight to remove the DMSO solvent. S. aureus (ATCC #25983) was used as the bacteria for this experiment. Bacteria was grown in Tryptic Soy Broth for 16-24 hours before placing a lawn on Tryptic Soy Agar in 100 mm Petri dishes.
Thirty six samples were tested in total (2 BT*n=3→6*6 rehydration times→36). A lawn of S. aureus was swabbed onto the Tryptic Soy Agar. For the 0 rehydration time point, the bismuth thiol coated disc was placed approximately in the center of the plate and rehydrated with ˜50 μl of sterile saline. Other rehydration times were varied at 5, 10, 20, 30, or 60 minutes. For this, the samples were placed in sterile saline and a timer set for each time. At the appropriate time, samples were removed from the saline and placed approximately in the center of the plate. Plates were incubated inverted for 24 hours at which time pictures were taken with a digital camera. Zones-of-inhibition were compared visually between groups.

For bismuth-1,2-ethanedithiol [BisEDT], the “Zone-of-inhibition, visual” value (S. aureus (ATCC #25983) [1]; S. aureus, 10 μg/cm^2 on SIS disc, sterilized (ethylene oxide or E-beam ~25 kGy) and non-sterile) was “effectiveness at creating a zone-of-inhibition”, the “Compatibility with sterilization technique” value (S. aureus (ATCC #25983) [1]; ethylene oxide vs E-beam (~25 kGy), zone-of-inhibition against S. aureus compared visually) was “E-beam sterilization exhibited greater compatibility with BisEDT than ethylene oxide sterilization” and the “Zone-of-inhibition, distance of bacterial growth inhibition from the disc edge” value (E. coli (ATCC #25922)) was 1.28. For the same substance, the “Zone-of-inhibition, distance of bacterial growth inhibition from the disc edge” value (S. aureus (ATCC #25983) [2]) was 6.83, the “Zone-of-inhibition from the disc edge” value [3] was about 1 mm and the “Mold growth on coated disc” value (A. niger(ATCC #16404); 5 days) was “able to grow up to the disc edge but not on the BisEDT coated disc”. For the same substance, the “Mold growth on coated disc” value (A. niger(ATCC #16404); eight day time point) was “still unable to grow on the BisEDT coated discs”, the “Effect of rehydration time on zone-of-inhibition, visual comparison” value (S. aureus (ATCC #25983) [4]; 10 μg/cm^2, rehydration 0-60 minutes in sterile saline) was “no visual differences between the rehydration time points” and the “Zone-of-inhibition, visual” value (S. aureus (ATCC #25983) [4]; 10 μg/cm^2 on SIS disc, rehydration 0, 5, 10, 20, 30 or 60 minutes) was “significant effectiveness in creating a zone-of-inhibition”.

— patent US8343536B2, “Biofilm-inhibiting medical products” (Cook Biotech Incorporated, priority 2007, dated 2013)
